Key:
[1] = tested on: hippocampal microglial reaction; experiment: Microglial reaction (IB4 histochemistry) after stereotaxic intrahippocampal microinjection, AMPA excitotoxicity model; format: in vivo, rat; details: for density of reactive microcytes (IB4-stained) / hippocampal microgliosis area: rat dorsal hippocampus, 24 hours after lesion, mean ± SEM, n=4; for hippocampal microgliosis area: two 0.5 μl injections 2 h apart (5.4 mM AMPA and/or 20 μM glibenclamide)
Description: (§1) In this neurodegenerative model, rats were anaesthetized with equithesin (a mixture of chloral hydrate and sodium pentobarbitone; 0.3 ml/100 g body wt, i.p.), and placed on a Kopf stereotaxic frame with the incisor bar set at −3.3 mm. Intracerebral injections aimed at the dorsal hippocampus were performed at 3.3 mm caudal to bregma, 2.2 mm lateral, and 2.9 mm ventral from dura (cf. G. Paxinos et al., “The rat brain in stereotaxic coordinates”, Sydney: Academic Press 1986). A volume of 0.5 μl was injected over a period of 5 min.
(§2) Four different groups of rats received two injections in a 2-hour interval as follows: a) sham rats (n=4) received two injections of PBS; b) AMPA rats (n=4) received the first injection of 5.4 mM AMPA and the second of PBS; c) glibenclamide rats (n=4) received two injections of 20 μM glibenclamide; d) AMPA+glibenclamide rats (n=4) received 5.4 mM AMPA+20 μM glibenclamide in the first injection and 20 μM glibenclamide in the second injection. All rats were sacrified 24 hours after the lesion.
(§3) Rats were transcardially perfused with 300 ml of 0.1 M phosphate buffer (PB, pH 7.4) followed by 300 ml ice-cold fixative (flow rate 20 ml/min). The fixative consisted of 4% (w/v) paraformaldehyde in PB. Brains were removed, crioprotected with 15% (w/v) sucrose in PB and then, frozen with dry ice.
Cryostat sections (12 μm) were obtained at the level of dorsal hippocampus (−3.3 mm to bregma). Isolectine B4 (IB4) histochemistry was performed to identify the microglial reaction (cf. C. A. Colton et al., J. Histochem. Cytochem. 1992, vol. 40, pp. 505-12). The hippocampal morphology was studied in Cresyl violet stained sections. The area of lesion and the microgliosis evaluation were performed on cresyl violet and IB4-positive stained sections respectively. These parameters were analyzed using a computer-assisted image analysis system (OPTIMAS®, BioScan Inc., Washington, USA). IB4-stained reactive microcytes were counted at ×100 magnification using an ocular grid mounted on a transmission light microscope (Axiolab, Zeiss, Göttingen, Germany). One-way ANOVA was used to compare differences between groups, followed by the LSD post-hoc test. Results are expressed as mean ± SEM.

[2] = tested on: AMPA induced rat hippocampal excitotoxic damage; experiment: Hippocampal CA1 lesion area (cresyl violet) after stereotaxic intrahippocampal microinjection, AMPA excitotoxicity model; format: in vivo; details: for area of hippocampal CA1 pyramidal layer lesion: rat dorsal hippocampus, two injections 2 h apart (5.4 mM AMPA and/or 20 μM glibenclamide), 24 hours after lesion, mean ± SEM
Description: as §1, §2, §3
Cryostat sections (12 μm) were obtained at the level of dorsal hippocampus (−3.3 mm to bregma). Isolectine B4 (IB4) histochemistry was performed to identify the microglial reaction (cf. C. A. Colton et al., J. Histochem. Cytochem. 1992, vol. 40, pp. 505-12). The hippocampal morphology was studied in Cresyl violet stained sections. […] These parameters were analyzed using a computer-assisted image analysis system (OPTIMAS®, BioScan Inc., Washington, USA). IB4-stained reactive microcytes were counted at ×100 magnification using an ocular grid mounted on a transmission light microscope (Axiolab, Zeiss, Göttingen, Germany). […] Results are expressed as mean ± SEM.

[3] = rat AMPA hippocampal excitotoxicity model, 20 μM glibenclamide

| Structure (SMILES) | effect on microglial activation (in words) [1, 3] | density of reactive microcytes (IB4-stained) [1] | hippocampal microgliosis area [1] | effect on hippocampal lesion (in words) [2, 3] | area of hippocampal CA1 pyramidal layer lesion [2] |
| --- | --- | --- | --- | --- | --- |
| COc1ccc(Cl)cc1C(=O)NCCc1ccc(S(=O)(=O)NC(=O)NC2CCCCC2)cc1 [glibenclamide] | potentiates microglial activation | 614±91 cells/mm^2 | 0.16±0.03 mm^2 | avoids hippocampal excitotoxic damage | 0.012±0.0017 mm^2 |
| Cc1onc(O)c1CC(N)C(=O)O (stereo not drawn) [AMPA, α-amino-3-hydroxy-5-methylisoxazole-4-propionic] | – | 645±59 cells/mm^2 | 0.44±0.07 mm^2 | – | 0.130±0.015 mm^2 |
